Measured values as given in patent US8138357B2, “Compounds and their salts specific to the PPAR receptors and the EGF receptors and their use in the medical field” (Giuliani International Limited, priority 2005, dated 2012).
“Also recorded” adds a separate entry of the source. Residues, ends and D or L forms follow the SMILES beside them. *: point of attachment. Cbz = O=C(OCc1ccccc1)*; CH2F = FC*

How the values were obtained:
DLD-1 cells [1] = test: Cell death by Annexin V / propidium iodide FACS analysis; format: cell-based, human; settings: 48 hours
Method: The effect of the compound 14 on colon epithelial cell death was also assessed. To this end, cells were cultured as indicated above for 2 days and then the fraction of Annexin V (AV) and/or propidium iodide (PI)-positive cells was evaluated using a commercially available kit (Beckmann Coulter™, Milan, Italy). To evaluate whether the effect of the compound 14 on colon epithelial cell death was dependent on caspase activity, cells were pre-incubated with z-VAD-fmk (40 μM), a pan-caspase inhibitor, for 1 hour prior to adding the compound 14 (1.5 mM). The fraction of AV and PI-positive cells was determined after 48 hours culture as indicated above.

DLD-1 cells [2] = test: Cell growth by colorimetric BrdU incorporation assay, DLD-1; format: cell-based; settings: Homo sapiens, 48 hours; for inhibition at 500 µM: 0.5 mM; for inhibition at 1000 µM: 1 mM; for inhibition at 2500 µM: 2.5 mM; for inhibition at 5000 µM: 5 mM; for inhibition at 10000 µM: 10 mM
Method: (§1) HT-29 and DLD-1 cells were cultured in McCoy and RPMI1640 media respectively, supplemented with 10% fetal bovine serum (FBS), 1% penicillin/streptomycin (P/S) and 50 μg/ml gentamycin. HT-115 were cultured in DMEM medium supplemented with 15% FBS and 1% P/S. Cells were maintained in a humidified incubator at 37° C., in the presence of 5% CO2.
(§2) For cell growth assays, single-cell suspensions were plated at 2×10^3 cells/well (4×10^3 cells/well for HT115) in 96-well culture dishes in medium containing 0.5% FBS and allowed to adhere. The non-adherent cells were then removed, and fresh medium containing 0.5% FBS was added into each well. Cells were cultured in the presence or absence of the specified substances. Each substance was dissolved as a 25 mM stock solution in culture medium containing 0.5% FBS, and the pH of each stock solution was adjusted to 7.4, if necessary, with NaOH. Substances were used at a final concentration ranging from 0.5 to 10 mM. Cell proliferation was determined by measuring the incorporation of 5-bromo-2′-deoxyuridine (BrdU) into DNA using a commercially available cell proliferation kit (Roche Diagnostics™, Monza, Italy). BrdU was added to the cell cultures during the last 6 hours of incubation, and the level of BrdU-positive cells was assessed after 48 h culture by enzyme-linked immunosorbent assay (ELISA).
(§3) Optical density (OD) was determined at 450 nm using an ELISA reader. Experiments were performed in triplicate and the results are reported as the mean±standard deviation (SD).

HT-29, HT-115 and DLD-1 = test: Colon cancer cell growth by BrdU assay, three human colon carcinoma cell lines; format: cell-based; settings: for anti-proliferative effect on colon cancer cell growth (in words): 0.5-10 mM; for anti-proliferative effect on colon cancer cell growth (in words) / inhibition at 10000 µM: 48 h; for inhibition at 10000 µM: Homo sapiens, Colon carcinoma cell, final concentration 10 mM; for cell death following precipitates in cell cultures: colon cancer cell cultures, Example 10
Method: For this purpose, three human colon carcinoma cell lines (i.e. HT-29, HT-115 and DLD-1) were used. These cell types were selected on the basis of the cyclooxigenase-2 (COX-2) expression. Indeed, HT-115 cells express a biologically active COX-2, HT-29 cells express a non-functional COX-2 isoform, and DLD-1 are COX-2-deficient cells.
as §1, §2, §3

HT-29 STD cells = test: Cytotoxic effect on epithelial cells seen in the HT-29 experiments; format: cell-based, human; settings: 30 mM, HT-29 cells
Method: HT-29 STD cells were transiently transfected using the Effectene™ transfection reagent (Qiagen™) according to instructions from the manufacturer. To test PPARγ activation, we performed transfection with 500 ng of a minimal promoter construct containing two copies of PPRE obtained from the cytochrome p450 4A (2XCYP) (1). The renilla luciferase plasmid ([…]) was also transfected as an internal control for monitoring transfection efficiency and for normalizing the firefly luciferase activity. Transfected cells were left for 48 hours incubation at 37° C. […] The pH of the drug solutions was adjusted to 7.4 with NaOH. Total cell extracts were prepared using the Passive Lysis Buffer (Promega™, Madison, Wis.). Luciferase activity was assayed in 20 μl of the extract using the Promega™ Dual Luciferase assay system according to the manufacturer's protocol. Transfections were assayed in triplicate in at least three separate experiments. The luciferase activity was expressed as fold of the activity obtained in cells treated with the different molecules divided by luciferase activity from non-stimulated cells.
After 24 h of culture, HT-29 STD cells were treated during 24 h with the new molecules 13, 14, 17, 26 and 31, at 30 mM. […] The pH of the drug solutions was adjusted to 7.4 with NaOH. Cells were fixed in PFA 4%, permeabilized in PBS containing 0.1% Triton X-100™ at 4° C. and then incubated with goat normal serum and blocking buffer (1% BSA in PBS) to minimize non-specific adsorption of the antibody.
After 24 h of culture, HT-29 STD cells were treated during 24 h with the new molecules 13, 14, 17, 26 and 31, at a concentration of 30 mM. […] The pH of the drug solutions was adjusted to 7.4 with NaOH. Cells undergoing apoptosis were identified by enzymatic labelling of DNA strands using a terminal transferase dUTP nick end labelling assay (TUNEL assay, Roche Diagnostics™, Meylan, France). Counts of at least 500 cells/sample were systematically performed blindly in one experiment. The results were expressed as the mean±SEM of the number of stained cells.

[3] = Solubility in drug solutions / culture medium; format: physicochemical; settings: for precipitates in cell cultures: colon cancer cell cultures
DLD-1 cells [4] = test: CFSE flow cytometry of cell proliferation; format: cell-based, human; settings: 48 hour treatment, untreated 90±4%
Method: To assess further the effect of the compound 14 on colon epithelial cell growth, serum-starved DLD-1 cells were incubated in 0.2 μM carboxyfluorescein diacetate succinimidyl ester (CFSE) (Invitrogen™, Milan Italy) at 37° C. for 30 minutes, then extensively washed and cultured with or without the addition of the compound. After 2 days culture, CFSE fluorescence was evaluated and the proportion of cells undergoing divisions was determined, thus allowing calculation of both precursor frequency and proliferative index.

PPARγ = PPARγ protein expression by western blot in HT-29 cells; format: cell-based, human; settings: 30 mM, 24 hours, HT-29, relative to β-actin
Method: The total proteins were obtained by cell homogenization in an extraction buffer consisting of PBS with 2% Triton™, Phenyl Methyl Sulphonyl Fluoride (PMSF) 100 mM and a classical protease inhibitor cocktail (2). The total proteins were then separated by polyacrylamide gel electrophoresis and electroblotted. Polyvinylidendifluoride (PVDF) membranes were incubated overnight with rabbit polyclonal primary antibody directed against PPARγ (dilution 1/500, TEBU, Le Perray en Yveline, France). β-actin was detected using a rabbit monoclonal primary antibody diluted at 1/10,000 (Sigma). Immunodetection with a secondary peroxidase-conjugated antibody (1/1000, Dako™, Trappes, France) and chemiluminescence was performed according to the manufacturer's protocol (ECL™, Amersham Pharmacia Biotech™, Orsay, France). Optical density values of PPARγ were given for each condition in proportion to the quantity of the internal control β-actin in the same sample (2).

solubility in the culture medium ([3]; culture medium, Example 10)	SMILES	percentage of AV/PI-positive cells in cells treated with compound 14 (DLD-1 cells [1]; preincubation z-VAD-fmk 40 μM 1 hour, then compound 14 1.5 mM)	inhibition at 500 µM (DLD-1 cells [2])	inhibition at 1000 µM (DLD-1 cells [2])	inhibition at 2500 µM (DLD-1 cells [2])	inhibition at 5000 µM (DLD-1 cells [2])	inhibition at 10000 µM (DLD-1 cells [2])	anti-proliferative effect on colon cancer cell growth (in words) (HT-29, HT-115 and DLD-1)	inhibition at 10000 µM (HT-29, HT-115 and DLD-1)	cell death following precipitates in cell cultures (HT-29, HT-115 and DLD-1)	cytotoxic effect on epithelial cells (HT-29 STD cells)	precipitates in cell cultures ([3]; Example 10)	fraction of proliferating cells (DLD-1 cells [4]; 0.5 mM)	fraction of proliferating cells (DLD-1 cells [4]; 1 mM)	fraction of proliferating cells (DLD-1 cells [4]; 2.5 mM)	cell death (AV and/or PI-positive cells) (DLD-1 cells [1]; 1.5 mM, p<0.01)	cell death (AV and/or PI-positive cells) (DLD-1 cells [1]; 3 mM, p<0.001)	induction of PPARγ protein levels quantified by western blot (PPARγ)	solubility ([3]; drug solutions for HT-29 experiments, 30 mM, pH 7.4)
–	COC(=O)C[C@H](NC(=O)[C@H](C)NC(=O)[C@@H](NC(=O)OCc1ccccc1)C(C)C)C(=O)CF [Z-VAD, z-VAD-fmk, reference compound] (Cbz-Val-Ala-Asp(OMe)-CH2F)	largely reduced	–	–	–	–	–	–	–	–	–	–	–	–	–	–	–	–	–
–	COc1cc(N)ccc1C(=O)NO [compound 13, 4-amino-N-hydroxy-2-methoxybenzamide]	–	21.1%	73%	92.7%	96.3%	96.4%	marked anti-proliferative effect; also recorded: most powerful suppressors of colon cancer cell growth	> 90%	massive cell death	rapid cytotoxic effects	precipitates developed	–	–	–	–	–	–	–
–	COc1ccc(N)cc1C(=O)NO [compound 14, 5-amino-N-hydroxy-2-methoxybenzamide]	–	22.8%	36%	76.5%	90.5%	94.1%	marked anti-proliferative effect; also recorded: most powerful suppressors of colon cancer cell growth	> 90%	–	rapid cytotoxic effects	–	48±7%	21±11%	11±6%	significantly enhances DLD1 cell death	significantly enhances DLD1 cell death	–	–
–	CCOc1ccc(N)cc1C(=O)NO [compound 26, 5-amino-2-ethoxy-N-hydroxybenzamide]	–	13.6%	19%	62%	86%	94.5%	marked anti-proliferative effect	–	–	rapid cytotoxic effect	–	–	–	–	–	–	2 fold	–
not soluble in the culture medium	CC1(C)OC(=O)c2cc(N)ccc2O1 [compound 28, 6-amino-2,2-dimethyl-4H-benzo[1,3]dioxin-4-one]	–	–	–	–	–	–	–	–	–	–	–	–	–	–	–	–	–	–
–	CC(C)N(c1ccc(O)c(C(=O)O)c1)C(C)C [compound 38, 5-diisopropylaminosalicylic acid]	–	6%	11.1%	51.9%	85.9%	94.5%	marked anti-proliferative effect; also recorded: most powerful suppressors of colon cancer cell growth	–	massive cell death	rapid cytotoxic effect	precipitates developed	–	–	–	–	–	–	poor solubility
